Experimental data from publication PMC12366525, “Characterization of allosteric modulators that disrupt androgen receptor co-activator protein-protein interactions to alter transactivation–Drug leads for metastatic castration resistant prostate cancer” (SLAS discovery : advancing life sciences R & D, 2023).

What was measured:
[1] = tested on: PSA; test: Western blot of PSA expression in C4–2 cells; format: cell-based, human; conditions: for C4-2 cell lysates PSA Western Blot, relative to DMSO (100%): 10 nM DHT 24 h, 20 μM compound 3 h pre-exposure; for Effect on endogenous and DHT-enhanced PSA expression and secretion: C4–2 cells, 20 μM for 3 h prior to DMSO or 10 nM DHT, 24 h
Protocol: Cell lysate protein concentrations were determined in a bicinchoninic acid (BCA) assay. Equal amounts of cell protein were mixed with SDS-PAGE sample buffer and placed in a heat block at 100 °C for 5 min. The protein constituents of C4–2 cells were separated by SDS-PAGE on 10% separating gels, transferred to nitrocellulose membranes and western blots were probed overnight at 4 °C with a 1:1000 dilution of a rabbit anti-hPSA (Cell Signaling, Danvers, MA) primary antibody in Tris-buffered saline (TBS) Tween 20 (TBST) containing 5% non-fat milk. Membranes were washed 3x in TBST for 10 min, then incubated for 1 h at room temperature with a 1:10,000 dilution of the goat anti-rabbit IgG horse radish peroxidase (HRP) conjugated secondary antibody (Invitrogen, Carlsbad, CA) in TBST containing 5% non-fat milk. Western blots were then washed 3x in TBST and developed with Pierce enhanced chemiluminescence (ECL) western blotting substrate (Thermo Fisher Scientific, Waltham, MA). Images of western blot ECL bands were acquired on an iBright 1500 imaging system (Thermo Fisher Scientific, Waltham, MA) and quantified by iBright image analysis software.

[2] = target: T1, TIF2 (Homo sapiens, UniProt Q15596); test: Western blotting cellular thermal shift assay for TIF2 in C4–2 cells; format: cell-based; conditions: 20 μM 1 h at 37 °C prior to heat shock at 46 °C
T1 construct: endogenous in cells; host or cells: C4–2 cells
Protocol: C4–2 cells were harvested by trypsinization, washed 1x by centrifugation at 270 × g for 5 min and resuspension in PBS, counted, centrifugated at 270 × g for 5 min and resuspended at 7 × 10 [6] cells per mL in Opti-MEM medium (Gibco, Gaithersburg, MD). 50 μL of C4–2 cell suspension (3.5 × 10 [5] cells) were then transferred to PCR tubes that were placed in a T-100 thermocycler (BioRad, Hercules, CA) and a 2 °C interval temperature step gradient from 37 °C to 53 °C was applied. Cells were maintained at each step of the temperature gradient for 5 min and then tubes were withdrawn and placed on ice. 50 μL of cell lysis buffer, 500 mM NaCl, 1% NP-40, 1x protease inhibitor cocktail in PBS were added to the heat shocked cell suspensions in PCR tubes and placed on ice for an additional 30 min. Cell lysates were then centrifuged at 14,000 RPM (18,800 × g) at 4 °C for 15 min and supernatants were transferred to new tubes and protein concentrations were determined in a bicinchoninic acid (BCA) assay. 45 μL of cell lysis supernatants were mixed with 15 μL of 5x SDS-PAGE sample buffer and placed in a heat block at 100 °C for 5 min. The protein constituents of heat shocked C4–2 cell lysis supernatants were separated by SDS-PAGE on 8% separating gels, transferred to nitrocellulose membranes that were blocked for 1 h at room temperature in 5% non-fat milk in TBST, and then probed overnight at 4 °C with a 1:1000 dilution of either rabbit anti-AR (Cell Signaling, Danvers, MA) or rabbit anti-TIF2 (Bethyl Laboratories, Waltham, MA) primary antibodies in TBST containing 5% non-fat milk. Membranes were then washed 3x in TBST buffer for 10 min, then incubated with a 1:10,000 dilution of the goat anti-rabbit IgG HRP conjugated secondary antibody (Invitrogen, Carlsbad,CA) in TBST containing 5% non-fat milk for 1 h at room temperature. Western blots were then washed 3x in TBST buffer and developed with Pierce ECL western blotting substrate. Images of ECL western blots were acquired on an iBright 1500 imaging system and quantified using the iBright image analysis software.

[3] = target: T2, AR (Homo sapiens, UniProt P10275, T878A); test: AlphaScreen cellular thermal shift assay (CETSA) for AR in C4–2 cells; format: cell-based; conditions: for Effect on AR thermal stability, AlphaScreen CETSA: 1 h at 37 °C prior to heat shock at 46 °C, hits and enzalutamide 20 μM, DHT 10 nM; for Effect on maximum efficacy of DHT-enhanced AR thermal stabilization / Right shift of the DHT EC50 for AR thermal stabilization: 20 or 50 μM compound pre-treatment
T2 construct: DHT-induced full length AR directed TA; endogenous in cells; host or cells: C4–2 castration resistant prostate cancer cells
T2 sequence (P10275 1-920 T878A): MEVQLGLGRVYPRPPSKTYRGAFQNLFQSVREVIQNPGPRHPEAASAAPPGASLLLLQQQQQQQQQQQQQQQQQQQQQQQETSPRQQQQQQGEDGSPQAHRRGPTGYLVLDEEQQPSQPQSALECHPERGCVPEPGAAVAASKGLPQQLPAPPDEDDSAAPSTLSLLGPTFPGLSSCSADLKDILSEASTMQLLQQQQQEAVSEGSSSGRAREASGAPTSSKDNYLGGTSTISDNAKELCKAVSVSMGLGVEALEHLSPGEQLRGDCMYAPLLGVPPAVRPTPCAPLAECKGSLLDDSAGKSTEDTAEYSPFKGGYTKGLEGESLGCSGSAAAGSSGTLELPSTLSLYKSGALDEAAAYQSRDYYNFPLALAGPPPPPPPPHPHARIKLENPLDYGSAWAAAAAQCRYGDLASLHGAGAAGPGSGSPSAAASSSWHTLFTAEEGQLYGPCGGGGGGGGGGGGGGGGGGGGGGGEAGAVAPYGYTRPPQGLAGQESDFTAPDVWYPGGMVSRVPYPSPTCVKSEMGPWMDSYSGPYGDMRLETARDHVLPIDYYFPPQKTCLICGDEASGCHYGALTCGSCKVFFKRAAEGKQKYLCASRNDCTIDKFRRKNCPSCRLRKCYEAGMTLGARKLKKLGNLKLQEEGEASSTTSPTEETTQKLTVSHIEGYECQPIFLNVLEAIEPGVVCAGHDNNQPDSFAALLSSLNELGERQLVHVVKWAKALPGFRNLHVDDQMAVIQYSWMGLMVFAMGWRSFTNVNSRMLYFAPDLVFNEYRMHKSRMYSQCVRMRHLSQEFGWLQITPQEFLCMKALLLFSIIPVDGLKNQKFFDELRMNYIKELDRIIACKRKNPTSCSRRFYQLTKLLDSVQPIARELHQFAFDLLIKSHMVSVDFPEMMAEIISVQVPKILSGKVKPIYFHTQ
Protocol: Mouse anti-hAR (BD Biosciences, San Jose, CA) and rabbit anti-hAR (MilliporeSigma, Burlington, MA) were diluted 1:330 and 1:1000 fold respectively in PBS containing 0.5 mg/mL BSA and 4 μL of the combined diluted AR antibody pair were added to 4 μL of the cell lysate supernatant in a 384-well plate and incubated in the dark for 30 min at room temperature. To each well of the 384-well plate 4 μL of a combined solution of anti-mouse IgG Alpha Donor and anti-rabbit IgG (Fc specific) AlphaLISA Acceptor beads suspended in 1x lysis buffer was added to yield a final donor and acceptor bead concentrations of 40 μg/mL and 10 μg/mL respectively.

T1 sequence (Q15596 whole entry): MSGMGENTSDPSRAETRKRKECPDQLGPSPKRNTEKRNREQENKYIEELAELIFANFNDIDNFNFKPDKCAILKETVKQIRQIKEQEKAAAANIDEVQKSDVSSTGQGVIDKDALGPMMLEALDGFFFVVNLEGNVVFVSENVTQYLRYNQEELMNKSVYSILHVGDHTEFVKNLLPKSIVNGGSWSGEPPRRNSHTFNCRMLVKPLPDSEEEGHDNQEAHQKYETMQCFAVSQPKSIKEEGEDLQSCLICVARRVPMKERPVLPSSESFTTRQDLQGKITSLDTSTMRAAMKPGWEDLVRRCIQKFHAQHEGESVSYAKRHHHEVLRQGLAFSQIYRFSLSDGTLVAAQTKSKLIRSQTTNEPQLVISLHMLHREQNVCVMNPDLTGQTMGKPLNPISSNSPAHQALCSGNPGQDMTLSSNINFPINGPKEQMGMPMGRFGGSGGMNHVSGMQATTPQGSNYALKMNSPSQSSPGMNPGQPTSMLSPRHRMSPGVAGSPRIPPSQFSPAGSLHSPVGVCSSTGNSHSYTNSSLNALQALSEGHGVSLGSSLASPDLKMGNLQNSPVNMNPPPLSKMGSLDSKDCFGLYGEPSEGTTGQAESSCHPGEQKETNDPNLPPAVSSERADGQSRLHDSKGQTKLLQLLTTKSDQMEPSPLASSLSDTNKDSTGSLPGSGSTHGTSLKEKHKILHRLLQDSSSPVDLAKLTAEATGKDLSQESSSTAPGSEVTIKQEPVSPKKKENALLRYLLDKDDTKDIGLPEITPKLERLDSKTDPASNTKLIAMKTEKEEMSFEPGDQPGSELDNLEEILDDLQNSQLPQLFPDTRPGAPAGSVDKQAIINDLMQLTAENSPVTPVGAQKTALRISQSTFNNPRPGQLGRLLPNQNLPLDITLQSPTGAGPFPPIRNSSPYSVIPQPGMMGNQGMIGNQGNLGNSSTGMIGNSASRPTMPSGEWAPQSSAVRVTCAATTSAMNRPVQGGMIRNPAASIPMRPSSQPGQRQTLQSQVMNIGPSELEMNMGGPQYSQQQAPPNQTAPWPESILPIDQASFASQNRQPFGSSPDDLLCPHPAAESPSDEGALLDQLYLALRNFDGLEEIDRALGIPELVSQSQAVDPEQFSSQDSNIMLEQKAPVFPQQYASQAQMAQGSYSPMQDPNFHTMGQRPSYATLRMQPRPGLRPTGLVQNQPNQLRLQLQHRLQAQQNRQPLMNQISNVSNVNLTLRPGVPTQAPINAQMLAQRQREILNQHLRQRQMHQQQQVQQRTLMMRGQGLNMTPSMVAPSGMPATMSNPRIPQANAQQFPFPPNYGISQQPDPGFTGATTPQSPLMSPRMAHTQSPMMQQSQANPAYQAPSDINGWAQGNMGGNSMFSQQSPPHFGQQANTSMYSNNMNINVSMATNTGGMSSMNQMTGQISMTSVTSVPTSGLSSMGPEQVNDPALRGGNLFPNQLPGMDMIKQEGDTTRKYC

Row | SMILES | C4-2 cell lysates PSA Western Blot, relative to DMSO (100%) [1] [%] | Effect on endogenous and DHT-enhanced PSA expression and secretion [1] | Effect on TIF2 thermal stability [2] | Effect on AR thermal stability, AlphaScreen CETSA [3] | Effect on maximum efficacy of DHT-enhanced AR thermal stabilization [3] | Right shift of the DHT EC50 for AR thermal stabilization [3] [fold]
1 | Cc1ccccc1-c1cc(O)c2c(c1)CN(c1nc(C(N)=O)cs1)CCO2 [S1–1] | 22.1 | substantially reduced both endogenous and DHT-enhanced PSA expression and secretion | did not enhance TIF2 thermal stability over DMSO | did not stabilize AR in the AlphaScreen assay but blocked DHT-enhanced AR thermal stabilization |  | 
2 | Cc1nsc(NC(=O)N2CCC(Sc3ccccc3C)CC2)n1 [S2–6] | 0.9 | substantially reduced both endogenous and DHT-enhanced PSA expression and secretion | did not enhance TIF2 thermal stability over DMSO | did not stabilize AR in the AlphaScreen assay but blocked DHT-enhanced AR thermal stabilization | reduced the maximum efficacy of DHT-enhanced AR thermal stabilization | > 10
3 | Cc1c(-c2ccccc2F)[nH]c2ccc(CNC(=O)CCc3cn[nH]c3)cc12 [S3–11] | 22.8 | substantially reduced both endogenous and DHT-enhanced PSA expression and secretion | did not enhance TIF2 thermal stability over DMSO | did not stabilize AR in the AlphaScreen assay but blocked DHT-enhanced AR thermal stabilization | at 50 μM reduced the maximum efficacy of DHT | ≥ 10
